This note sets out measurements from patent US6753348B2, “BTK inhibitors and methods for their identification and use” (Parker Hughes Institute, priority 1998, dated 2004).

The subject of this experiment is OVA-sensitized and challenged mice. The experiment can be described thus: Airway responsiveness to methacholine in mouse model of allergic asthma. The settings on record: ovalbumin sensitized and challenged, N = 5-6 mice. Format: in vivo. Here is the method: FIG. 28: Inhibition of airway hyperresponsiveness by LFM-A8 in mice. Mice were sensitized with ovalbumin (OVA) on days 0 and 14 intraperitoneally. On days 20, 21 and 23, mice were challenged for 15 min with 2% OVA via airways using a untrasonic nebulizer. After 24 h of the last OVA challenge airway responsiveness to increasing concentrations of methacholine was measured. To study the effect of LFM-A8 on airway hyperresponsiveness, mice were injected intraperitoneally with indicated concentrations of LFM-A8 or vehicle on day 20, 21, and 23 1 h prior and 2 h post OVA challenge and airway responsiveness to increasing concentrations of methacholine was measured. The data points represent the mean±SEM values (N=5-6 mice).
Mouse Model of Allergic Asthma. BALB/c mice were injected intraperitoneally with 20 μg of ovalbumin (OVA) in alum on day 0, and 14. On days 21, 22 and 23 the mice were challenged for 15 min with 2% OVA via their airways by ultrasonic nebulization (Takeda, K., et al., (1997) J Exp Med, 186, 449-454). In order to study the effect of LFM-A8 on allergic asthma, mice were treated with LFM-A8 or vehicle 2 h prior to OVA challenge on day 21, 22 and 23. Mice were assessed for “airway responsiveness” on day 24, as previously reported (Takeda, K., et al., (1997) J Exp Med, 186, 449-454; Hamelmann, E., et al., (1997) Am J Respir Crit Care Med, 156, 766-775) and described below.
Determination of Airway Responsiveness. Airway responsiveness was measured in unrestrained mice by noninvasive whole body plethysmography using a BUXCO BioSystem plethysmography instrument (BUXCO, Trou, N.Y.) (Hamelmann, E., et al., (1997) Am J Respir Crit Care Med, 156, 766-775). The chamber pressure was measured with a transducer connected to a preamplifier module and analyzed by system XA software) (Hamelmann, E., et al., (1997) Am J Respir Crit Care Med, 156, 766-775). The chamber pressure was used as a measure of the difference between thoracic volume expansion or contraction and air volume removed or added to the chamber during breathing. The differential of this function with respect to time produced a pseudo-flow value that is proportionate to the difference between the rate of the thoracic volume expansion and nasal air flow. The pulmonary airflow obstruction assessed by measuring “Enhanced Pause (Penh)” using the following formula according to the manufacturer's recommendations: Penh=PEP/PIP×Pause. […] In order to measure the methacholine responses, mice were placed in the chamber and baseline readings were taken and averaged for 3 min. Mice were nebulized with saline or methacholine at increasing doses (1-100 mg/ml) for 3 min and the Penh readings were taken and averaged for 3 min after each nebulization. […]

The structures appear in SMILES notation.

With `CC(O)=C(C#N)C(=O)Nc1cccc(C(F)(F)F)c1` [LFM-A8, α-Cyano-β-hydroxy-β-methyl-N-[3-(trifluoromethyl)phenyl]-propenamide], the “Requirement of Methacholine for an Increase in Penh of 100%” value (15 mg/Kg intraperitoneally) was 36.8 mg/mL and the “Requirement of Methacholine for an Increase in Penh of 100%” value (50 mg/Kg intraperitoneally) came to 67.5 mg/mL. Further, the “Requirement of Methacholine for an Increase in Penh of 200%” value came out at 82 mg/mL (15 mg/Kg intraperitoneally) and 129 mg/mL (50 mg/Kg intraperitoneally).
